According to paper PMC8344021, “Discovery of Small Molecule Bak Activator for Lung Cancer Therapy” (Theranostics, 2021):

Test system: MDA-MB-231, MCF7, HCT-116, Ramos, OPM-1, PANC-1 and U2OS cell lines
Assay: Apoptotic cell death in other types of cancer cell lines
Assay type: cell-based, human
Details: 1μM, 72h
Description: Figure S2. BKA-073 induces mitochondrial priming and apoptosis in various type of cancers. (A) Expression levels of Bak were analyzed by Western blot in various type of cancer cell lines. (B-C) Various type of cancer cell lines were treated with BKA -073 (1µM) for 16h or 72h, followed by analysis of dynamic BH3 profiling (B) or apoptotic cell death (C), respectively.
Data represent the mean ± SD, n = 3 per group. ***P < 0.001, by 2-tailed t test.
(1 picture or pasted object on this page, not shown here)
Supplemental Materials and Methods
Small molecule NSC14073 (BKA-073) was obtained from the Drug Synthesis and Chemistry Branch, Developmental Therapeutic Program, Division of Cancer Treatment and Diagnosis, National Cancer Institute (NCI, Bethesda, MD) (http://dtp.nci.nih.gov/RequestCompounds).
Venetoclax (ABT-199, 205807) was purchased from MedKoo Biosciences (Morrisville, NC). […]
Cells were seeded at a density of 5 × 103 per well in 96-well plates and allowed to grow overnight. After treatment with BKA-073, the surviving cell fraction was determined using the sulforhodamine B (SRB) assay as described. Optical density (OD) was measured at 510nm in a microplate reader (Synergy H1, BioTek®, Winooski, VT). […]
Apoptotic cells were detected using Annexin-V Apoptosis Detection Kit (556547, BD Biosciences, San Jose, CA) according to the manufacturer’s instructions. […]

Structure (SMILES): COc1ccc2nc3ccccc3c(NCCNCC(C)O)c2c1 (stereo not shown) [BKA-073]
- induction of apoptotic cell death: potently induced
